Data from doi:10.1101/2020.06.11.145995v1 (biorxiv, 2020).
Where two headings read alike, the source gives them in different places. One block for each compound: values may come before it.

Experiments:
Test in all cases: biochemical
[1] = target: ACVR1 (Homo sapiens, UniProt Q04771)
[2] = target: ACVRL1 (Homo sapiens, UniProt P37023)
[3] = target: AKT1 (Homo sapiens, UniProt P31749)
[4] = target: ALK (Homo sapiens, UniProt Q9UM73)
[5] = target: ASK2 (Homo sapiens, UniProt O95382)
[6] = target: AURKB (Homo sapiens, UniProt Q96GD4)
[7] = target: BRAF (Homo sapiens, UniProt P15056)
[8] = target: CASK (Homo sapiens, UniProt O14936)
[9] = target: CDC2L2 (Homo sapiens, UniProt Q9UQ88)
[10] = target: CDK2 (Homo sapiens, UniProt P24941)
[11] = target: CDK9 (Homo sapiens, UniProt P50750)
Chain of CDK9 (P50750 whole entry): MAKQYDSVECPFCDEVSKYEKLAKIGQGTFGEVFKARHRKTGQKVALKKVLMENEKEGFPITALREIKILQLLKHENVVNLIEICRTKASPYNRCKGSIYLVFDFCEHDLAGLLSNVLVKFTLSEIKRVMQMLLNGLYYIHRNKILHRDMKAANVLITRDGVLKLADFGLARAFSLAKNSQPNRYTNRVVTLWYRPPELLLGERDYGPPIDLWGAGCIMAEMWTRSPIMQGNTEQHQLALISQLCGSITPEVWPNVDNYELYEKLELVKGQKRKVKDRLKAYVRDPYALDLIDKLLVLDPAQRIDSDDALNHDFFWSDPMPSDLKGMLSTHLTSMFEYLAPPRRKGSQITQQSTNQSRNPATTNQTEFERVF

[12] = target: CLK4 (Homo sapiens, UniProt Q9HAZ1)
Chain of CLK4 (Q9HAZ1 whole entry): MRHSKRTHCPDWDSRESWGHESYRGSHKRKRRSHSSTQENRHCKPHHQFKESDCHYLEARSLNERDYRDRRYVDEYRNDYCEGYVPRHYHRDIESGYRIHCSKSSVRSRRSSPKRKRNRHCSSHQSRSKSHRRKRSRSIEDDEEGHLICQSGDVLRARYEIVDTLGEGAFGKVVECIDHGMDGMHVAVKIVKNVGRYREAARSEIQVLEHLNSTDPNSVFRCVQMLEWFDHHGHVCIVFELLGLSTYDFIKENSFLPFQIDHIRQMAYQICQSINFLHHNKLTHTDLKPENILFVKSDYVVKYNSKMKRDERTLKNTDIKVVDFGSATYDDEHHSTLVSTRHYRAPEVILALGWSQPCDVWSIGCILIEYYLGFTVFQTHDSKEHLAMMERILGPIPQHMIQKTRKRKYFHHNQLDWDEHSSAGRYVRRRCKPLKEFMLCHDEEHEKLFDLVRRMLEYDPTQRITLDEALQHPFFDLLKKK

[13] = target: CSNK1G2 (Homo sapiens, UniProt P78368)
[14] = target: CSNK2A2 (Homo sapiens, UniProt P19784)
[15] = target: DAPK1 (Homo sapiens, UniProt P53355)
[16] = target: DCAMKL1 (Homo sapiens, UniProt O15075)
[17] = target: DCAMKL2 (Homo sapiens, UniProt Q8N568)
[18] = target: DLK (Homo sapiens, UniProt Q12852)
[19] = target: EGFR(L861Q) (Homo sapiens, UniProt P00533, L861Q)
[20] = target: FES (Homo sapiens, UniProt P07332)
Chain of FES (P07332 whole entry): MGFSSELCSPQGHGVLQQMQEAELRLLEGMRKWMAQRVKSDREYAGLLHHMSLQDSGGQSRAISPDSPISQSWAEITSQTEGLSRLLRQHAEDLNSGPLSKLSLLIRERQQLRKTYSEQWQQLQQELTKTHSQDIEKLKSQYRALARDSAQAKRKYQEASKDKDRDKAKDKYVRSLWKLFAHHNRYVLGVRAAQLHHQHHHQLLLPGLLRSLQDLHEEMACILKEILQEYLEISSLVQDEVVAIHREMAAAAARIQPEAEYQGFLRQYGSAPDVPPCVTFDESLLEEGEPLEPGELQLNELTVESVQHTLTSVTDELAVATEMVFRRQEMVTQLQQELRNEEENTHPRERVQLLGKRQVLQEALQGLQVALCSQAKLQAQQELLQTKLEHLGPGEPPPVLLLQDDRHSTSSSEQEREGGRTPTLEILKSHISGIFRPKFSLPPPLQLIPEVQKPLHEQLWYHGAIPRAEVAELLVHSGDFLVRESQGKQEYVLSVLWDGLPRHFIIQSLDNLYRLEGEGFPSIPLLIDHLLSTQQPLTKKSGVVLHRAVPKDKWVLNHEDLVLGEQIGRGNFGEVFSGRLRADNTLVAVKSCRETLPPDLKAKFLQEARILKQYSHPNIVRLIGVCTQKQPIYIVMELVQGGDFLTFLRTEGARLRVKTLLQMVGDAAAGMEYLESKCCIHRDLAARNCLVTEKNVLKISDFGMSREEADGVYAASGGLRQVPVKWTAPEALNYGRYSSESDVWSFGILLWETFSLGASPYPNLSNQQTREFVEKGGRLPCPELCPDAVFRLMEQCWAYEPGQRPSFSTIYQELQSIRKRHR

[21] = target: GSK3B (Homo sapiens, UniProt P49841)
Chain of GSK3B (P49841 whole entry): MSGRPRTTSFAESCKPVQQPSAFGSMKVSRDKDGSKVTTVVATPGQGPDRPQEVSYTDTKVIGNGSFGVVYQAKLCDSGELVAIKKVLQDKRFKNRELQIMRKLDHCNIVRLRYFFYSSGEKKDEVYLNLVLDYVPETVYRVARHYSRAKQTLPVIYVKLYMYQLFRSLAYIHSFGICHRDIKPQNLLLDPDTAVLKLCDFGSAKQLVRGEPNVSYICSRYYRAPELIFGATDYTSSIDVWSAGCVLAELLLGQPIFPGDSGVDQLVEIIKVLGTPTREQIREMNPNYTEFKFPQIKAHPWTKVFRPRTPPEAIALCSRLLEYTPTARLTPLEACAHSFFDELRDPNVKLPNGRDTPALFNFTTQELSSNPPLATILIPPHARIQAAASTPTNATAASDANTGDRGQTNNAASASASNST

[22] = target: HPK1 (Homo sapiens, UniProt Q92918)
[23] = target: IRAK3 (Homo sapiens, UniProt Q9Y616)
[24] = target: LOK (Homo sapiens, UniProt O94804)
[25] = target: MAPKAPK2 (Homo sapiens, UniProt P49137)
[26] = target: MARK4 (Homo sapiens, UniProt Q96L34)
[27] = target: MEK5 (Homo sapiens, UniProt Q13163)
[28] = target: MET(M1250T) (Homo sapiens, UniProt P08581, M1250T)
[29] = target: MINK (Homo sapiens, UniProt Q8N4C8)
Chain of MINK (Q8N4C8 whole entry): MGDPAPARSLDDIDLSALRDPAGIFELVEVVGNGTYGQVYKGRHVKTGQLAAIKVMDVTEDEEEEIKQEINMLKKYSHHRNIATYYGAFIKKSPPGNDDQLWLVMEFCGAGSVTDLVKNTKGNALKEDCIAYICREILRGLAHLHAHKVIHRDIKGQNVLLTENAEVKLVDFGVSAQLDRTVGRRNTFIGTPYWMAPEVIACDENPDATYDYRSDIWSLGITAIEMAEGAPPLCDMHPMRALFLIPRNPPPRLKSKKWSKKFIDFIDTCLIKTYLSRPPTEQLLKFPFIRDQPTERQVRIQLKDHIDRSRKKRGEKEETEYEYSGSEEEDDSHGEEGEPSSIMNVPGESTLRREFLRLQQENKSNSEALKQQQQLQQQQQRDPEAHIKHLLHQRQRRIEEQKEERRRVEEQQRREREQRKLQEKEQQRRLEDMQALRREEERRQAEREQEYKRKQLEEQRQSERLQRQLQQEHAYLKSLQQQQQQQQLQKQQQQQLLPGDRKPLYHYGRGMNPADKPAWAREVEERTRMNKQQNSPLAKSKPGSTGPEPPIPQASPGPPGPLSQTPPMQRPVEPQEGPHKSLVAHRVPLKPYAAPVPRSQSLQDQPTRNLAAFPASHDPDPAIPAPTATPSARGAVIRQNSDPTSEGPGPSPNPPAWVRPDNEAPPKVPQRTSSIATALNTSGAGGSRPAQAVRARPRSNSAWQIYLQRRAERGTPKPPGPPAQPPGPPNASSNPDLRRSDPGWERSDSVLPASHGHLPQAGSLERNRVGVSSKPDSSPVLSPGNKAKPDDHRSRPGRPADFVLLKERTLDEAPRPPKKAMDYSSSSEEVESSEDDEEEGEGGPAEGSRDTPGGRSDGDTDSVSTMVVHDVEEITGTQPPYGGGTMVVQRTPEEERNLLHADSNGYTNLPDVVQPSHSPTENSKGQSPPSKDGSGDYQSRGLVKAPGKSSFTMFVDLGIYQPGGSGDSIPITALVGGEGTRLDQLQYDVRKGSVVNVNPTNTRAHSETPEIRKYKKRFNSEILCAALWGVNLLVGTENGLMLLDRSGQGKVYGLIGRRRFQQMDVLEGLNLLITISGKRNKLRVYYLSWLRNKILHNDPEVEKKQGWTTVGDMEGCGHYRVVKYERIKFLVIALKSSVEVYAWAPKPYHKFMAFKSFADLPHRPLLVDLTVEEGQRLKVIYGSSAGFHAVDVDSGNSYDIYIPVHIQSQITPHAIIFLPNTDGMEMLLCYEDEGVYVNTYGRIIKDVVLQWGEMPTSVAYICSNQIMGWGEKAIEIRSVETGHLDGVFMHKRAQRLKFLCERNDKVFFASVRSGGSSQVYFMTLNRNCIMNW

[30] = target: MYLK2 (Homo sapiens, UniProt Q9H1R3)
Chain of MYLK2 (Q9H1R3 whole entry): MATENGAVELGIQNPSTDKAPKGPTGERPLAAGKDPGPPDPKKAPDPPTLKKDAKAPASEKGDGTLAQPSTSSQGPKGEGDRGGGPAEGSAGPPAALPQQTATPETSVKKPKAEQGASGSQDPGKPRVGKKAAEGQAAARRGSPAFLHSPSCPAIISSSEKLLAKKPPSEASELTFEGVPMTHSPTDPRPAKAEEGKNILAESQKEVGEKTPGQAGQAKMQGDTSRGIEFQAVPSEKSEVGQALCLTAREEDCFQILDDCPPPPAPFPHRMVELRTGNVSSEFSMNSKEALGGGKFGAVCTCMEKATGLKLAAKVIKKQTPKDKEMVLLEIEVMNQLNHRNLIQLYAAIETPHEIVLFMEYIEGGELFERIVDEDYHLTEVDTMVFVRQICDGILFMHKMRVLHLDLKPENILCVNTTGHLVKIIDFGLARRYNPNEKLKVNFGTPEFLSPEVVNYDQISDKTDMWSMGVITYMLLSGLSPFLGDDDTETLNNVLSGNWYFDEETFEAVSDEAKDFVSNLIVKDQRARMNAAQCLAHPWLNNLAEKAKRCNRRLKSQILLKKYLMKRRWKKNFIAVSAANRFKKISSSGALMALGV

[31] = read-out: CPT-1-70-1 (1uM) % control
[32] = read-out: HYJ-2-002-1 (1uM) % control

Chain of AKT1 (P31749 whole entry): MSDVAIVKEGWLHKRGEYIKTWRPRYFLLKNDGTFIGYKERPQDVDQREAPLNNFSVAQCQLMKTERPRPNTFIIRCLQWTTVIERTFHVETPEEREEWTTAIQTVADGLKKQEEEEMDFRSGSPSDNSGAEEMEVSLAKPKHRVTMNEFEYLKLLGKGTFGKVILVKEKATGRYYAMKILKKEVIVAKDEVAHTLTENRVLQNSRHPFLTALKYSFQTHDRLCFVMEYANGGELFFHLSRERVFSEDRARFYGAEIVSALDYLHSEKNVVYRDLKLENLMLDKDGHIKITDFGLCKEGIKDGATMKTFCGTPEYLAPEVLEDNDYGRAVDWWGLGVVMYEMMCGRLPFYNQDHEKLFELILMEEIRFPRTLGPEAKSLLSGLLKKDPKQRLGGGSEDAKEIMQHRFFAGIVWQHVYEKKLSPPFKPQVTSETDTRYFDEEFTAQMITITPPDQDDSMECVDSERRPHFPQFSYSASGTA
Chain of ACVR1 (Q04771 whole entry): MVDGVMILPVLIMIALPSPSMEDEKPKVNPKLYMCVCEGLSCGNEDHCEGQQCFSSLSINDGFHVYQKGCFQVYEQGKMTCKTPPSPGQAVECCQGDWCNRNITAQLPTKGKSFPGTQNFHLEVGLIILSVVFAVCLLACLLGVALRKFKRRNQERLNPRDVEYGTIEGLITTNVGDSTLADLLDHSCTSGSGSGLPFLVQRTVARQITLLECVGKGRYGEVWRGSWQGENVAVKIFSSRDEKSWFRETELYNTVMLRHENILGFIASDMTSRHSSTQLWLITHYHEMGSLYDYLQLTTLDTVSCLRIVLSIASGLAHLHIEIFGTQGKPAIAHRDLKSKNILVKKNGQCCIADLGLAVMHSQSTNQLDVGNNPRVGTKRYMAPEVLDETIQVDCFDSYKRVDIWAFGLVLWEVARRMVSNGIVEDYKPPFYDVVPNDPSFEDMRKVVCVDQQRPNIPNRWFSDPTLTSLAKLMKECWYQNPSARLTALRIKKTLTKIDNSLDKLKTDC

SMILES: CN1CCN(c2ccc(Nc3nc(Oc4ccc(NC(=O)CCl)cc4)c4cc[nH]c4n3)cc2)CC1 [CPT1-70-1]
- remaining activity at 1 µM [1, 31]: 100%
- remaining activity at 1 µM [2, 31]: 100%
- remaining activity at 1 µM [3, 31]: 100%
- remaining activity at 1 µM [4, 31]: 38%
- remaining activity at 1 µM [5, 31]: 100%
- remaining activity at 1 µM [6, 31]: 61%
- remaining activity at 1 µM [7, 31]: 87%
- remaining activity at 1 µM [8, 31]: 100%
- remaining activity at 1 µM [9, 31]: 100%
- remaining activity at 1 µM [10, 31]: 100%
- remaining activity at 1 µM [11, 31]: 90%
- remaining activity at 1 µM [12, 31]: 6.5%
- remaining activity at 1 µM [13, 31]: 0.7%
- remaining activity at 1 µM [14, 31]: 28%
- remaining activity at 1 µM [15, 31]: 86%
- remaining activity at 1 µM [16, 31]: 100%
- remaining activity at 1 µM [17, 31]: 92%
- remaining activity at 1 µM [18, 31]: 78%
- remaining activity at 1 µM [19, 31]: 18%
- remaining activity at 1 µM [20, 31]: 73%
- remaining activity at 1 µM [21, 31]: 98%
- remaining activity at 1 µM [22, 31]: 13%
- remaining activity at 1 µM [23, 31]: 89%
- remaining activity at 1 µM [24, 31]: 100%
- remaining activity at 1 µM [25, 31]: 100%
- remaining activity at 1 µM [26, 31]: 1.8%
- remaining activity at 1 µM [27, 31]: 18%
- remaining activity at 1 µM [28, 31]: 39%
- remaining activity at 1 µM [29, 31]: 41%
- remaining activity at 1 µM [30, 31]: 86%

- remaining activity at 1 µM [1, 32]: 100%
- remaining activity at 1 µM [2, 32]: 100%
- remaining activity at 1 µM [3, 32]: 100%
- remaining activity at 1 µM [4, 32]: 75%
- remaining activity at 1 µM [5, 32]: 100%
- remaining activity at 1 µM [6, 32]: 43%
- remaining activity at 1 µM [7, 32]: 3.7%
- remaining activity at 1 µM [8, 32]: 100%
- remaining activity at 1 µM [9, 32]: 76%
- remaining activity at 1 µM [10, 32]: 100%
- remaining activity at 1 µM [11, 32]: 100%
- remaining activity at 1 µM [12, 32]: 69%
- remaining activity at 1 µM [13, 32]: 45%
- remaining activity at 1 µM [14, 32]: 100%
- remaining activity at 1 µM [15, 32]: 98%
- remaining activity at 1 µM [16, 32]: 100%
- remaining activity at 1 µM [17, 32]: 100%
- remaining activity at 1 µM [18, 32]: 86%
- remaining activity at 1 µM [19, 32]: 0.85%
- remaining activity at 1 µM [20, 32]: 13%
- remaining activity at 1 µM [21, 32]: 88%
- remaining activity at 1 µM [22, 32]: 3.4%
- remaining activity at 1 µM [23, 32]: 100%
- remaining activity at 1 µM [24, 32]: 0.75%
- remaining activity at 1 µM [25, 32]: 100%
- remaining activity at 1 µM [26, 32]: 94%
- remaining activity at 1 µM [27, 32]: 0.85%
- remaining activity at 1 µM [28, 32]: 61%
- remaining activity at 1 µM [29, 32]: 33%
- remaining activity at 1 µM [30, 32]: 0.85%
SMILES: CCN1CCN(Cc2ccc(NC(=O)c3ccc(C)c(CCc4cnc5[nH]ccc5c4OC)c3)cc2C(F)(F)F)CC1 [HYJ-2-002-1]
